In patent US20250064948A1, “GCPII INHIBITION FOR THE TREATMENT OF SARCOPENIA AND AGING” (The Johns Hopkins University, priority 2022, published 2025):

How the values were obtained:
aged C57BL6/J mice [1] = experiment: 2-PMPA treatment of aged C57BL6/J mice: muscle function, muscle mass, frailty, survival, plasma cytokines; assay type: in vivo; details: 15-month old WT mice, 100 mg/kg, 5 days per week for 5 months, vs vehicle
aged C57BL6/J mice [2] = experiment: as above; assay type: in vivo
Description: To determine whether 2-PMPA treatment could delay muscle function loss in aged animals, 15-month old C57BL6/J mice were treated with 100 mg/kg of 2-PMPA IP daily for 5 months and monthly body weight, grip strength, compound muscle action potential (CMAP), open field behavior, end stage muscle weights and survival were monitored.
After 5 months of treatment, 2-PMPA treated animals were moving more in the open field apparatus.

[3] = 20 weeks of 2-PMPA treatment, plasma

With `O=C(O)CCC(CP(=O)(O)O)C(=O)O` (stereo not shown) [Compound 2-PMPA, 2-(phosphonomethyl) pentanedioic acid] the “compound muscle action potential (CMAP) in the foot muscles” value (aged C57BL6/J mice [1]) was “significantly improved”, the grip strength (aged C57BL6/J mice [1]) was “significantly improved” and the “movement in open field” value (aged C57BL6/J mice [1]) was “significantly improved”. For the same compound, the “calf muscle area measured by MRI” value (aged C57BL6/J mice [2]; 2 months on treatment, vs vehicle treated mice) was “significantly greater”, the gastrocnemius muscle weights (aged C57BL6/J mice [2]; 5 months of treatment, vs vehicle treated mice) was “significantly increased” and the “survival after 5 months of treatment” value (aged C57BL6/J mice [2]; 15-month old C57BL6/J mice, 100 mg/kg 2-PMPA IP, 5 months, vehicle 8%) was 58%. For the same compound, the “median survival exceeding the vehicle mice” value (aged C57BL6/J mice [2]; 15-month old C57BL6/J mice, 100 mg/kg 2-PMPA, vs vehicle) was 106 days, the “plasma IFN-gamma” value (aged C57BL6/J mice [2]; [3]) was “reduced” and the “plasma IL-1beta” value (aged C57BL6/J mice [2]; [3]) was “reduced”. For the same compound, the “plasma TNF-alpha” value (aged C57BL6/J mice [2]; [3]) was “reduced”, the frailty index scores (aged C57BL6/J mice [2]; after 5 months of treatment, vs vehicle-treated mice) was “significantly reduced” and the body weight loss (aged C57BL6/J mice [2]; after 5 months on 2-PMPA therapy, vs vehicle treated mice) was “significant delay”. The “gastrocnemius muscle fiber cross sectional area (CSA)” value (aged C57BL6/J mice [2]; old mice treated with 2-PMPA vs vehicle treated old mice) was “significantly larger”.
